Like-named read-outs stand apart in the source and are kept apart here. *1 amine or outer side, *2 acyl side, *3 side chain or, on linkers, in order; H or OH if unused. Where a SMILES comes first, the peptide text is derived from it. Bridges are numbered along the chain shown (N, C = ends). Roman numbers before positions name the chains, in order. [ ]: non-standard residue; d: D form. Actinocin(9to1) = Cc1c2oc3c(C)ccc(C(=O)[*:1])c3nc-2c(C(=O)[*:2])c(N)c1=O; NMeV = CN[C@H](C(=O)O)C(C)C; Sar = CNCC(=O)O
Legend:
[1] = system: Clone V cells
[2] = target: T1, FGF14:Nav1.6 C-tail complex (Homo sapiens, UniProt Q92915+Q9UQD0); assay: Split-luciferase complementation assay (LCA) in Clone V double stable HEK293 cells; type: cell-based
T1 construct: polymerase chain reaction (PCR) amplification of the FGF14 open reading frame (nt 1–855); C-terminal fragment of Nav1.6 (amino acids 1763–1976) fused with CD4ΔC-tail (amino acids 1–395); expressed in transfected cells

[3] = target: full-length P. pyralis luciferase (Photinus pyralis, UniProt P08659, K549A/L550V/N119G/N50D/S548I); type: cell-based
[4] = CC_NCI screening, LCA luminescence, biological replicate Set 1, normalized to on-plate 0.3% DMSO controls (n=16 per plate)
[5] = CC_NCI screening, LCA luminescence, biological replicate Set 2, normalized to on-plate 0.3% DMSO controls (n=16 per plate)
[6] = CC_NCI screening, LCA, biological replicate Set 1, normalized to on-plate 0.3% DMSO controls
[7] = CC_NCI screening, LCA, biological replicate Set 2, normalized to on-plate 0.3% DMSO controls
[8] = CC_NCI screening, average of Set 1 and Set 2, normalized to 0.3% DMSO controls
[9] = CC_NCI screening, full-length luciferase counter-screen luminescence, normalized to on-plate 0.3% DMSO controls
[10] = CC_NCI screening, full-length luciferase counter-screen, normalized to on-plate 0.3% DMSO controls
[11] = CC_NCI screening, biological replicate Set 1, normalized to on-plate 0.3% DMSO controls
[12] = CC_NCI screening, biological replicate Set 1, normalized to on-plate 0.3% DMSO controls (n=16 per plate)
[13] = CC_NCI screening, biological replicate Set 2, normalized to on-plate 0.3% DMSO controls
[14] = CC_NCI screening, biological replicate Set 2, normalized to on-plate 0.3% DMSO controls (n=16 per plate)
[15] = average of Set 1 and Set 2, normalized to 0.3% DMSO controls
[16] = CC_NCI screening, normalized to on-plate 0.3% DMSO controls

T1 sequence (Q92915 1-252 isoform Q92915-2): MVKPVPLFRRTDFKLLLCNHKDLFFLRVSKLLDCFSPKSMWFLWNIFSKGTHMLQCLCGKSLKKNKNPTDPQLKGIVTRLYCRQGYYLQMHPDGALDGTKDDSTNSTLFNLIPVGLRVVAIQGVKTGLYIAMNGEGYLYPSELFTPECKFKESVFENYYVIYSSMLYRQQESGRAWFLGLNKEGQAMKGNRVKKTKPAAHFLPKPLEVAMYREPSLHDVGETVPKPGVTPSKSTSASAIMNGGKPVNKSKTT
T1 sequence (Q9UQD0 1763-1976 limits assumed): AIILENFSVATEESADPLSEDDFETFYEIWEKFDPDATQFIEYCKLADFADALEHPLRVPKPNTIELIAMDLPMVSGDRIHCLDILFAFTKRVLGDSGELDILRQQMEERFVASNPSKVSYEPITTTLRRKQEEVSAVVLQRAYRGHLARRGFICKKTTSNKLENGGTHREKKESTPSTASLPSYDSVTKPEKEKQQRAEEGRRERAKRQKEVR
full-length P. pyralis luciferase, sequence (P08659 whole entry N50D/N119G/S548I/K549A/L550V, looked up): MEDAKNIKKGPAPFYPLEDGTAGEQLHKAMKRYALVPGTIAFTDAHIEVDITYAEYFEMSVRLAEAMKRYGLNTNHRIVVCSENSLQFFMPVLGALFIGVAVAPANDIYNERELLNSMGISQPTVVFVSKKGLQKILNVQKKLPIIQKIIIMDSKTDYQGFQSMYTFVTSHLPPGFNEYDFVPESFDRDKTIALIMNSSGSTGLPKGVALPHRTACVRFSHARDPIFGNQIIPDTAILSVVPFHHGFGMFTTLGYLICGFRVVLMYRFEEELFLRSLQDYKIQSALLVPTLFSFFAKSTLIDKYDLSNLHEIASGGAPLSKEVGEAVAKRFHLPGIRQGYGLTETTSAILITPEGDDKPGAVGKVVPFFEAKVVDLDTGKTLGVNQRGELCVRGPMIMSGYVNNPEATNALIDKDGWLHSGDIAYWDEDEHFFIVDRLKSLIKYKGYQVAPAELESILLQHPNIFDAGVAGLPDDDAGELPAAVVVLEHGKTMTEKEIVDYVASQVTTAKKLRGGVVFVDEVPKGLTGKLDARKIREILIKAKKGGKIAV

SMILES	Toxicity Assay % Fluor ([1]; human, 16 h, 30 µM) [%]	Toxicity Assay Z-score ([1]; human, 16 h, 30 µM)	Split Luciferase Assay % Lum Set 1 [2, 4] [%]	Split Luciferase Assay %Lum Set 2 [2, 5] [%]	Split Luciferase Assay Z-score Set 1 [2, 6]	Split Luciferase Assay Z-score Set 2 [2, 7]	Split Luciferase Assay %Lum Avg [2, 8] [%]	Luciferase Assay % Lum [3, 9] [%]	Luciferase Assay Z-score [3, 10]	further results
COc1nc(N)nc2c1ncn2[C@@H]1O[C@H](CO)[C@@H](O)[C@@H]1O [Nelarabine]	90.75	-1.29	129.69	114.43	2.40	1.17	122.06			Luciferase Assay % Lum [3]: 93.91%; Luciferase Assay Z-score [3]: -0.78
C=C(c1ccc(C(=O)O)cc1)c1cc2c(cc1C)C(C)(C)CCC2(C)C [BEXAROTENE]	86.80	-1.85	129.69	99.87	2.40	-0.01	114.78	99.04	-0.12	
C=CC(=O)Nc1cc2c(Nc3ccc(F)c(Cl)c3)ncnc2cc1OCCCN1CCOCC1 [CANERTINIB]	84.09	-2.22	28.59	34.33	-5.77	-5.34	31.46	50.65	-6.32	
FC(F)c1nc2ccccc2n1-c1nc(N2CCOCC2)nc(N2CCOCC2)n1 [ZSTK474]	95.63	-0.61	95.99	74.90	-0.32	-2.04	85.45	86.44	-1.74	
CC1=C2C[C@H]3[C@@H](CC=C4C[C@@H](O)CC[C@@]43C)[C@@H]2CC[C@]12O[C@@H]1C[C@H](C)CN[C@H]1[C@H]2C [CYCLOPAMINE]										Toxicity Assay % Fluor ([1]; human): 85.59%; Toxicity Assay Z-score ([1]; human): -2.01; Split Luciferase Assay % Lum Set 1 [2]: 141.65%; Split Luciferase Assay %Lum Avg [2]: 122.84%; Split Luciferase Assay %Lum Set 2 [2]: 104.03%; Split Luciferase Assay Z-score Set 1 [2]: 3.37; Split Luciferase Assay Z-score Set 2 [2]: 0.33; Luciferase Assay Z-score [3]: 0.81
COc1ccc(Cl)cc1[C@]1(F)C(=O)Nc2cc(C(F)(F)F)ccc21 [BMS 204352]	103.30	0.46	10.11	17.69	-7.26	-6.70	13.90	36.55	-8.12	
Cc1c2oc3c(C)ccc(C(=O)N[C@@H]4C(=O)N[C@H](C(C)C)C(=O)N5CCC[C@H]5C(=O)N(C)CC(=O)N(C)[C@@H](C(C)C)C(=O)O[C@@H]4C)c3nc-2c(C(=O)N[C@@H]2C(=O)N[C@H](C(C)C)C(=O)N3CCC[C@H]3C(=O)N(C)CC(=O)N(C)[C@@H](C(C)C)C(=O)O[C@@H]2C)c(N)c1=O [Dactinomycin] (I: T[dV]P[Sar][NMeV] / II: T[dV]P[Sar][NMeV]; ester I:1-I:C, II:1-II:C; linker I:N-II:N via Actinocin(9to1))				65.54		-2.80	62.83	95.88	-0.53	Toxicity Assay % Fluor ([1]; human): 93.25%; Toxicity Assay Z-score ([1]; human): -0.94
N#C/C(=C/c1ccc(O)c(O)c1)C(=O)NCc1ccccc1 [AG 490]			118.82	120.68	1.52	1.68	119.75	85.62	-1.84	Toxicity Assay % Fluor [1]: 89.42%; Toxicity Assay Z-score [1]: -1.48
COc1cc([C@@H]2c3cc4c(cc3[C@@H](O[C@@H]3O[C@@H]5CO[C@@H](C)O[C@H]5[C@H](O)[C@H]3O)[C@H]3COC(=O)[C@H]23)OCO4)cc(OC)c1O [Etoposide]	88.49	-1.61	77.51	72.82	-1.82	-2.21	75.17	103.75	0.48	
CC(C)(C#N)c1cc(Cn2cncn2)cc(C(C)(C)C#N)c1 [Anastrozole]	95.38	-0.65	89.47	99.87	-0.85	-0.01	94.67	100.06	0.01	
O=C1NC(=O)/C(=C/c2ccc3c(c2)OC(F)(F)O3)S1 [AS-604850]										Toxicity Assay Z-score (CTB cell viability) [1]: 2.25; Split Luciferase Assay Z-score Set 1 [2, 11]: -2.78; Split Luciferase Assay % Lum Set 1 [2, 12]: 65.55%; Split Luciferase Assay Z-score Set 2 [2, 13]: -1.96; Split Luciferase Assay %Lum Set 2 [2, 14]: 75.94%; Split Luciferase Assay %Lum Avg [2, 15]: 70.75%; Luciferase Assay % Lum (full-length luciferase counter-screen) [3, 16]: 62.77%; Luciferase Assay Z-score (full-length luciferase counter-screen) [3, 16]: -4.77
Fc1ccc(Cl)cc1-c1nc(Nc2ccncc2)c2nccnc2n1 [SD 208]										Toxicity Assay % Fluor (CTB cell viability fluorescence) [1]: 107.60%; Toxicity Assay Z-score (CTB cell viability) [1]: 1.06; Split Luciferase Assay Z-score Set 2 [2, 13]: -3.73; Split Luciferase Assay %Lum Set 2 [2, 14]: 54.10%; Split Luciferase Assay %Lum Avg [2, 15]: 95.16%; Luciferase Assay % Lum (full-length luciferase counter-screen) [3, 16]: 88.62%; Luciferase Assay Z-score (full-length luciferase counter-screen) [3, 16]: -1.46
Cc1cn(-c2cc(NC(=O)c3ccc(C)c(Nc4nccc(-c5cccnc5)n4)c3)cc(C(F)(F)F)c2)cn1 [Nilotinib]	85.20	-2.07	126.43	113.39	2.14	1.09	119.91	94.65	-0.68	
COc1cc(N2CCC(N3CCN(C)CC3)CC2)ccc1Nc1ncc(Cl)c(Nc2ccccc2S(=O)(=O)C(C)C)n1 [NVP TAE684]										Toxicity Assay % Fluor (CTB cell viability fluorescence) [1]: 37.86%; Toxicity Assay Z-score (CTB cell viability) [1]: -8.69; Split Luciferase Assay Z-score Set 1 [2, 11]: -7.35; Split Luciferase Assay % Lum Set 1 [2, 12]: 9.02%; Split Luciferase Assay Z-score Set 2 [2, 13]: -7.71; Split Luciferase Assay %Lum Set 2 [2, 14]: 5.20%; Split Luciferase Assay %Lum Avg [2, 15]: 7.11%; Luciferase Assay % Lum (full-length luciferase counter-screen) [3, 16]: 96.39%; Luciferase Assay Z-score (full-length luciferase counter-screen) [3, 16]: -0.46
NC1(c2ccc(-c3nc4ccn5c(=O)[nH]nc5c4cc3-c3ccccc3)cc2)CCC1 [MK-2206]	95.56	-0.62	48.16	47.85	-4.19	-4.24	48.01	85.95	-1.80	

— paper PMC6858373 (Scientific Reports, 2019)
